Drawing on paper PMC10082216 (Nature Communications, 2023), this text covers Cmax and IC50 for two compounds.

For data set [1] the following is noted: read-out: Cmax in humans; at the lowest dose; ref not given; cited from earlier work.
The test system of data set [2] is female gametocytes. Kind of data set: 384-well microsphiltration readout 2 (anti-pfs25): retention of female gametocytes. The class given is cell-based. Conditions: Plasmodium falciparum, read-out: IC50 during the screening campaign, only females stained. As to the method: Large scale microsphiltration was performed as previously described. Briefly, microsphiltration plates were prepared using a Biomek NX workstation (Beckman, cat. no. 989402) to load 15 μl of 25–45μm microspheres then 10 μl of a mixture of 30% 5–15μm and 70% (w/w) 15–25μm microspheres. The 384-well filter plates were then stored at -20 °C until use. In some of the 384-well microsphiltration plates leakage of microspheres occurred in one or more wells. The wells with leakages were sealed. Plates displaying more than 5 sealed wells were not used. Imaging plates were prepared by loading 30 μL of staining solution in each well of a collagen-coated plate. A different staining solution was used for each readout (1 and 2). Readout 1 counted both male and female gametocytes, using nucleic acid (Syto40, Thermo Fisher cat. no. S11351) and viability (MitoTracker Deep Red, Thermo Fisher cat. no. M22426) staining, and total RBCs using a cell membrane stain (CellMask Orange, Thermo Fisher cat. no. C10045). Readout 2 selectively quantified the retention and killing of female gametocytes. […] Imaging plates were incubated overnight at room temperature, then read in an OperaPhenix high-content confocal imaging system (Perkin Elmer, Waltham, MA, USA) and analyzed with Harmony high-content analysis software v. […]

For the compound `C[C@H]1Cc2c([nH]c3cc(Cl)c(F)cc23)[C@@]2(N1)C(=O)Nc1ccc(Cl)cc12` [NITD609, cipargamin], in data set [1], the Cmax – broadly, the maximum level reached in the sampled fluid or tissue – was 630 nM.

On to `CNC(=O)N1C[C@@H](C)N(c2ccc(C(=O)Nc3ccc(-c4ccc(-c5c[nH]c([C@@H]6CCCN6C(=O)[C@@H](NC(=O)OC)C(C)C)n5)cc4)c(OC(F)(F)F)c3)cn2)C[C@@H]1C` [TD-6450], for which the IC50 (as a rule, the concentration needed to halve the response being measured) in data set [2] worked out at 2.03 ± 0.35 µM.
